Experimental findings from patent publication US20090137577A1, “HETEROCYCLIC COMPOUNDS” (Pfizer Inc., priority 2007, published 2009) are described below.

A value given as a limit tells only on which side of the number the result lay.

T1 sequence (Q14416 19-872, species assumed): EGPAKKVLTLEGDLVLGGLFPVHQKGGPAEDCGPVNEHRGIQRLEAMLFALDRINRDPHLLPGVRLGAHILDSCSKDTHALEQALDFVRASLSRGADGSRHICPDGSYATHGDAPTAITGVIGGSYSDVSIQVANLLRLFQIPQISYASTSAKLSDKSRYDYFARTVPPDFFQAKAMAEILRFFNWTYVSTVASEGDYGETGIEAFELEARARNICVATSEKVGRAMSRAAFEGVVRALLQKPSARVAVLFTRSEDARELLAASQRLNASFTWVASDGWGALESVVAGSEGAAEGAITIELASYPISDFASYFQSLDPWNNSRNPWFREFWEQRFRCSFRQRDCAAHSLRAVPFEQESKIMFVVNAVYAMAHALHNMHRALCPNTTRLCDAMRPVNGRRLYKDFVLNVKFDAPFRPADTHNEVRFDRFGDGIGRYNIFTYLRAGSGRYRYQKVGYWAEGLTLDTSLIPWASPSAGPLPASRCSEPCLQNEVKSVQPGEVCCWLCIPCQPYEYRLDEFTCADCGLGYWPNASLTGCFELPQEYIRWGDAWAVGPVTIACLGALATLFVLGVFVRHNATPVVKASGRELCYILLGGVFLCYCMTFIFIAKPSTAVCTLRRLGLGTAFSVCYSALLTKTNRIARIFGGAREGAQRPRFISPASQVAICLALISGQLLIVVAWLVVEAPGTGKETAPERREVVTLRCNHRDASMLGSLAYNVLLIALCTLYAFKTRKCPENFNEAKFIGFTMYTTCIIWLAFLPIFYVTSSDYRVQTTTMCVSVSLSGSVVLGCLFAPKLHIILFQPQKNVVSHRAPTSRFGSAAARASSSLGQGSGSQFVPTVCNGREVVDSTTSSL

The experiment concerns the target T1, mGluR2 receptor (metabotropic glutamate receptor 2) (Homo sapiens, UniProt Q14416).
T1 construct: expressed in transfected cells
Kind of experiment: mGluR2 potentiator screen (FLIPR, EC10-EC20 glutamate challenge).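 Further: HEK cells stably expressing human mGluR2 with GL15 G protein, Fluo-4 calcium fluorescence read on FLIPR, compounds added before an EC10-EC20 glutamate challenge to detect potentiation.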 The class given is cell-based. The following applies: geometric mean; read-out: mGluR 2 EC50 (geometric mean).
The term EC50 denotes the concentration that produces a half-maximal response. As for `CC1CN(Cc2ccc(OCc3cccc(C#N)c3)cc2)C(=O)O1` (stereo not shown) [Example 129], the half-maximal effective concentration (EC50) amounted to 155 nM.

With `CC(C)CCOc1ccc(CN2CC(C)OC2=O)cc1` (stereo not shown) [Example 143], the half-maximal effective concentration (EC50) stood at 75.5 nM. As to `CCN(C)CC1CN(Cc2ccc(-c3ccc(F)cc3F)cc2)C(=O)O1` (stereo not shown) [Example 304, 3-[(2′,4′-difluorobiphenyl-4-yl)methyl]-5-{[ethyl(methyl)amino]methyl}-1,3-oxazolidin-2-one], the half-maximal effective concentration (EC50) is 581 nM. As for `Cc1cc(F)ccc1-c1ccc(CN2C[C@@H](C)OC2=O)cc1F` [Example 290], the figure is 130 nM; as for `C[C@@H]1CN(Cc2ccc(-c3ccc(Cl)c(Cl)c3)nc2)C(=O)O1` [Example 261], 116 nM; as for `C[C@@H]1CN(Cc2ccc(-c3cccc4cccnc34)cc2)C(=O)O1` [Example 173], 930 nM. As for `O=C1OC(c2ccccc2)CN1Cc1ccc(OC2CCOCC2)cc1` (stereo not shown) [Example 36], the figure is 571 nM; as for `CC(C)N1Cc2ccc(-c3ccc(CN4C[C@@H](C)OC4=O)cc3)cc2C1` [Example 174], 1620 nM; as for `COc1ccc(F)cc1-c1ccc(CN2C[C@@H](C)OC2=O)cc1` [Example 166], 24.6 nM. Then `C[C@@H]1CN(Cc2ccc(OCCC3CCCCC3)c(Cl)c2)C(=O)O1` [Example 287, (5R)-3-[3-chloro-4-(2-cyclohexylethoxy)benzyl]-5-methyl-1,3-oxazolidin-2-one], with 174 nM. In the case of `CC(C1CCC1)N1CCN(Cc2ccc(-c3ccc(F)cc3F)cc2)C(=O)C1` (stereo not shown) [Example 306, 4-(1-Cyclobutylethyl)-1-[(2′,4′-difluorobiphenyl-4-yl)methyl]piperazin-2-one], the EC50 amounted to 327 nM. Then `C[C@@H]1CN(Cc2ccc(-c3cccc(Cl)c3F)cc2)C(=O)O1` [Example 235], with < 23.5 nM; and `COc1ccc(F)c(-c2ccc(CN3C[C@@H](C)OC3=O)cn2)c1` [Example 260], with 858 nM. As for `CC1CN(Cc2ccc(OCC3(C)CC3)cc2)C(=O)O1` (stereo not shown) [Example 95], the figure is 723 nM; as for `C[C@@H]1CN(Cc2ccc(-c3ccc(C(F)(F)F)cc3)nc2)C(=O)O1` [Example 265], 1100 nM. Then `C[C@H]1[C@@H](c2ccccc2)OC(=O)N1Cc1ccc(OCc2ccccc2)cc1` [Example 29], with 467 nM; and `CC1CN(Cc2ccc(OC(C)C3CC3)cc2)C(=O)O1` (stereo not shown) [Example 135], with 1890 nM; and `Cc1oc(-c2ccccc2)nc1CCOc1ccc(CN2CC(C)OC2=O)cc1` (stereo not shown) [Example 107], with 273 nM. On to `O=C1OC[C@@H]2CCCC[C@@H]2N1Cc1ccc(OCc2ccccc2)cc1` [Example 4], for which the EC50 was 647 nM. `Cc1cc(CN2C[C@@H](C)OC2=O)ccc1OCc1ccc(F)cc1C(F)(F)F` [Example 285, (5R)-3-(4-{[4-fluoro-2-(trifluoromethyl)benzyl]oxy}-3-methylbenzyl)-5-methyl-1,3-oxazolidin-2-one]: the EC50 was 217 nM. As for `C[C@@H]1CN(Cc2ccc(OCCC(C)(C)C)cc2)C(=O)O1` [Example 213], the figure is 20.1 nM; as for `C[C@@H]1CN(Cc2ccc(OCCCOc3ccc(F)cc3)nc2)C(=O)O1` [Example 229, (5R)-3-({6-[3-(4-fluorophenoxy)propoxy]pyridin-3-yl}methyl)-5-methyl-1,3-oxazolidin-2-one], 757 nM; as for `O=C1OC(c2ccccc2)CN1Cc1ccc(OCc2cccnc2)cc1` (stereo not shown) [Example 13], 218 nM. As for `Cc1ccc(-c2ccc(CN3C[C@@H](C)OC3=O)cc2)c(F)c1` [Example 232], the figure is < 39.2 nM; as for `C[C@@H]1CN(Cc2ccc(-c3cnc4ccccc4c3)cc2)C(=O)O1` [Example 181], 286 nM. As for `CC(C)COc1ccc(CN2C(=O)OC[C@H]3CCCC[C@H]32)cc1` [Example 2], the figure is 637 nM; as for `C[C@@H]1CN(Cc2ccc(-c3ccc(Cl)cc3Cl)nc2)C(=O)O1` [Example 269], 518 nM; as for `Cc1ccccc1-c1ccc(CN2C[C@@H](C)OC2=O)cc1` [Example 180], 52 nM.
